Test results from ChEMBL document CHEMBL5247580, “Discovery of novel AdipoRon analogues as potent anti-inflammatory agents against nonalcoholic steatohepatitis” (Eur J Med Chem, 2022).
Blank lines part the entries; values can stand above or below the compound they belong to. Active and inactive are the calls of the source. No cut-off for these calls is given here.

How the values were obtained:
RAW264.7 [1] = experiment: Cytotoxicity against mouse RAW264.7 cells at 50 uM by MTT assay relative to control; format: functional
RAW264.7 [2] = experiment: Anti-inflammatory activity in LPS induced mouse RAW264.7 cells assessed as inhibition of IL-1beta mRNA expression incubated for 12 hrs followed by LPS stimulation and measured after 6 hrs by RT-PCR method; format: functional, cell-based
RAW264.7 [3] = experiment: Anti-inflammatory activity in LPS induced mouse RAW264.7 cells assessed as inhibition of IL-1beta mRNA expression at 10 uM incubated for 12 hrs followed by LPS stimulation and measured after 6 hrs by RT-PCR method; format: functional, cell-based; conditions: time 18.0 hrs
Mus musculus [4] = experiment: Antiinflammatory activity in HFCFD-induced NASH po dosed C57BL/6JNifdc mouse model assessed as downregulation of CCL5 expression administered once daily for 4 weeks; format: functional, organism-based; conditions: dose 25-50 mg/kg
Mus musculus [5] = experiment: Reduction in hepatic steatosis in HFCFD-induced NASH po dosed C57BL/6JNifdc mouse model assessed as decrease in hepatocellular vacuolization administered once daily for 4 weeks by H and E staining based analysis; format: functional, organism-based; conditions: dose 25-50 mg/kg
Mus musculus [6] = experiment: Reduction in hepatic steatosis in HFCFD-induced NASH C57BL/6JNifdc mouse model assessed as reduction in liver weight at 50 mg/kg, po administered once daily for 4 weeks; format: functional, organism-based
Mus musculus [7] = experiment: Antiinflammatory activity in HFCFD-induced NASH po dosed C57BL/6JNifdc mouse model assessed as downregulation of CCL4 expression administered once daily for 4 weeks; format: functional, organism-based; conditions: dose 25-50 mg/kg
Mus musculus [8] = experiment: Antiinflammatory activity in HFCFD-induced NASH po dosed C57BL/6JNifdc mouse model assessed as downregulation of CCL2 expression administered once daily for 4 weeks; format: functional, organism-based; conditions: dose 25-50 mg/kg
Mus musculus [9] = experiment: Reduction in hepatic steatosis in HFCFD-induced NASH po dosed C57BL/6JNifdc mouse model assessed as decrease in lipid droplets administered once daily for 4 weeks by H and E staining based analysis; format: functional, organism-based; conditions: dose 25-50 mg/kg
RAW264.7 [10] = experiment: Antiinflammatory activity in mouse RAW264.7 cells assessed as downregulation of NF-kappaB p65 phosphorylation level at upto 10 uM by Western blot analysis; format: functional, cell-based
Mus musculus [11] = experiment: Reduction in hepatic steatosis in HFCFD-induced NASH C57BL/6JNifdc mouse model assessed as reduction in liver/body weight ratio at 50 mg/kg, po administered once daily for 4 weeks; format: functional, organism-based
Mus musculus [12] = experiment: Antiinflammatory activity in HFCFD-induced NASH po dosed C57BL/6JNifdc mouse model assessed as downregulation of IL-1beta expression administered once daily for 4 weeks; format: functional, organism-based; conditions: dose 25-50 mg/kg
Mus musculus [13] = experiment: Antiinflammatory activity in HFCFD-induced NASH C57BL/6JNifdc mouse model assessed as change inflammatory infiltration at 50 mg/kg, po administered once daily for 4 weeks by H and E staining based analysis; format: functional, organism-based
Mus musculus [14] = experiment: Anti-fibrosis effect in HFCFD-induced NASH C57BL/6JNifdc mouse model assessed as decrease in collagen accumulation at 25 to 50 mg/kg, po administered once daily for 4 weeks by Sirius red staining based analysis; format: functional, organism-based; conditions: dose 25-50 mg/kg
Mus musculus [15] = experiment: Antiinflammatory activity in HFCFD-induced NASH po dosed C57BL/6JNifdc mouse model assessed as downregulation of TNFalpha expression administered once daily for 4 weeks; format: functional, organism-based; conditions: dose 25-50 mg/kg
Mus musculus [16] = experiment: Anti-fibrosis effect in HFCFD-induced NASH C57BL/6JNifdc mouse model assessed as downregulation of Col3a1 mRNA level at 25 to 50 mg/kg, po administered once daily for 4 weeks; format: functional, organism-based; conditions: dose 25-50 mg/kg
Mus musculus [17] = experiment: Reduction in hepatic steatosis in HFCFD-induced NASH C57BL/6JNifdc mouse model assessed as decrease in fatty acids at 25 to 50 mg/kg, po administered once daily for 4 weeks by Oil red-O staining based assay; format: functional, organism-based; conditions: dose 25-50 mg/kg
[18] = target: T1, 5'-AMP-activated protein kinase (Mus musculus) (UniProt Q5EG47+Q8BRK8+Q6PAM0+O54950+Q91WG5+Q9R078+Q8BGM7); experiment: Agonist activity at AMPK in mouse C2C12 cells assessed as stimulation of AMPK phosphorylation at upto 30 uM; format: cell-based; conditions: filed as agonist
Mus musculus [19] = experiment: Antiinflammatory activity in HFCFD-induced NASH C57BL/6JNifdc mouse model assessed as decrease in AST serum level at 50 mg/kg, po administered once daily for 4 weeks by automated biochemical analyzer; format: functional, organism-based
Mus musculus [20] = experiment: Antiinflammatory activity in HFCFD-induced NASH C57BL/6JNifdc mouse model assessed as decrease in ALT serum level at 50 mg/kg, po administered once daily for 4 weeks by automated biochemical analyzer; format: functional, organism-based
Mus musculus [21] = experiment: Antiinflammatory activity in NASH C57BL/6JNifdc po dosed mouse model assessed as decrease in NF-kappaB p65 phosphorylation level administered once daily for 4 weeks by Western blot analysis; format: functional, organism-based; conditions: dose 25-50 mg/kg
Mus musculus [22] = experiment: Anti-fibrosis effect in HFCFD-induced NASH C57BL/6JNifdc mouse model assessed as downregulation of alpha-SMA mRNA level at 25 to 50 mg/kg, po administered once daily for 4 weeks; format: functional, organism-based; conditions: dose 25-50 mg/kg
[23] = target: T1, 5'-AMP-activated protein kinase (Mus musculus); experiment: Agonist activity at AMPK in mouse C2C12 cells assessed as increase in PGC-1alpha mRNA level; format: cell-based; conditions: filed as agonist, dose <= 30.0 µM
Mus musculus [24] = experiment: Anti-fibrosis effect in HFCFD-induced NASH C57BL/6JNifdc mouse model assessed as downregulation of Col1a1 mRNA level at 25 to 50 mg/kg, po administered once daily for 4 weeks; format: functional, organism-based; conditions: dose 25-50 mg/kg
Mus musculus [25] = experiment: Antiinflammatory activity in HFCFD-induced NASH po dosed C57BL/6JNifdc mouse model assessed as downregulation of IL-12beta expression administered once daily for 4 weeks; format: functional, organism-based; conditions: dose 25-50 mg/kg
[26] = target: T1, 5'-AMP-activated protein kinase (Mus musculus); experiment: Agonist activity at AMPK in mouse RAW264.7 cells assessed as stimulation of AMPK phosphorylation at upto 10 uM; format: cell-based; conditions: filed as agonist
Mus musculus [27] = experiment: Reduction in hepatic steatosis in HFCFD-induced NASH C57BL/6JNifdc mouse model assessed as decrease in triglycerides at 25 to 50 mg/kg, po administered once daily for 4 weeks by Oil red-O staining based assay; format: functional, organism-based; conditions: dose 25-50 mg/kg
Mus musculus [28] = experiment: Reduction in hepatic steatosis in HFCFD-induced NASH C57BL/6JNifdc mouse model assessed as decrease in neutral fat at 25 to 50 mg/kg, po administered once daily for 4 weeks by Oil red-O staining based assay; format: functional, organism-based; conditions: dose 25-50 mg/kg
RAW264.7 [29] = experiment: Anti-inflammatory activity in LPS induced mouse RAW264.7 cells assessed as inhibition of IL-6 mRNA expression at 10 uM incubated for 12 hrs followed by LPS stimulation and measured after 6 hrs by RT-PCR method; format: functional, cell-based; conditions: time 18.0 hrs

- IC50 (RAW264.7 [2]): 4.56 µM
Compound: Cc1ccc(C)c(OCCCC(C)(C)C(=O)NC2CCN(Cc3ccc(F)cc3)CC2)c1
- Activity (RAW264.7 [1]): 78.02%

- IC50 (RAW264.7 [2]): 5.17 µM
Compound: Cc1ccc(C)c(OCCCC(C)(C)C(=O)NC2CCN(Cc3ccc(C(F)(F)F)cc3)CC2)c1
- Activity (RAW264.7 [1]): 93.12%

- IC50 (RAW264.7 [2]): 6.54 µM
Compound: Cc1ccc(CN2CCC(NC(=O)C(C)(C)CCCOc3cc(C)ccc3C)CC2)cc1
- Activity (RAW264.7 [1]): 42.67%

Compound: CC(C)(Oc1ccc(C(=O)c2ccc(Cl)cc2)cc1)C(=O)NC1CCN(Cc2ccccc2)CC1
- Activity (RAW264.7 [3]): Active

- IC50 (RAW264.7 [2]): 4.15 µM
Compound: COc1ccc(CN2CCC(NC(=O)C(C)(C)CCCOc3cc(C)ccc3C)CC2)cc1
- Activity (RAW264.7 [1]): 7.19%

- Activity [18]: Active
- Activity [23]: Dose-Dependent Effect
- IC50 (RAW264.7 [2]): 4.4 µM
- Activity [26]: Active
Compound: CC(C)(Oc1ccc(C(=O)c2ccc(Cl)cc2)cc1)C(=O)NC1CCN(Cc2ccc(C(F)(F)F)cc2)CC1
- Activity (Mus musculus [4]): Dose-Dependent Effect
- Activity (Mus musculus [5]): Dose-Dependent Effect
- Activity (Mus musculus [6]): Active
- Activity (Mus musculus [7]): Dose-Dependent Effect
- Activity (Mus musculus [8]): Dose-Dependent Effect
- Activity (Mus musculus [9]): Dose-Dependent Effect
- Activity (RAW264.7 [10]): Active
- Activity (Mus musculus [11]): Active
- Activity (Mus musculus [12]): Dose-Dependent Effect
- Activity (Mus musculus [13]): Active
- Activity (RAW264.7 [1]): 98.46%
- Activity (Mus musculus [14]): Active
- Activity (Mus musculus [15]): Dose-Dependent Effect
- Activity (Mus musculus [16]): Active
- Activity (Mus musculus [17]): Active
- Activity (Mus musculus [19]): Active
- Activity (Mus musculus [20]): Active
- Activity (Mus musculus [21]): Dose-Dependent Effect
- Activity (Mus musculus [22]): Active
- Activity (Mus musculus [24]): Active
- Activity (Mus musculus [25]): Dose-Dependent Effect
- Activity (Mus musculus [27]): Active
- Activity (Mus musculus [28]): Active

- IC50 (RAW264.7 [2]): 4.57 µM
Compound: COc1ccc(CN2CCC(NC(=O)C(C)(C)Oc3ccc(C(=O)c4ccc(Cl)cc4)cc3)CC2)cc1
- Activity (RAW264.7 [1]): 4.08%

- IC50 (RAW264.7 [2]): 15 µM
Compound: O=C(COc1ccc(C(=O)c2ccccc2)cc1)NC1CCN(Cc2ccccc2)CC1
- Activity (RAW264.7 [29]): Active
- Activity (RAW264.7 [1]): 96.32%
- Activity (RAW264.7 [3]): Active

Compound: Cc1ccc(C)c(OCCCC(C)(C)C(=O)NC2CCN(Cc3ccccc3)CC2)c1
- Activity (RAW264.7 [3]): Active

- IC50 (RAW264.7 [2]): 10.2 µM
Compound: COc1ccc(CN2CCC(NC(=O)COc3ccc(C(=O)c4ccc(Cl)cc4)cc3)CC2)cc1
- Activity (RAW264.7 [1]): 3.33%

Compound: CC(C)(Oc1ccc(Cl)cc1)C(=O)NC1CCN(Cc2ccccc2)CC1
- Activity (RAW264.7 [3]): inactive

- IC50 (RAW264.7 [2]): 9.76 µM
Compound: CC(C)(Oc1ccc(C(=O)c2ccc(Cl)cc2)cc1)C(=O)NC1CCN(Cc2ccc(OC(F)(F)F)cc2)CC1
- Activity (RAW264.7 [1]): 88.34%

- IC50 (RAW264.7 [2]): 14.8 µM
Compound: Cc1ccc(C)c(OCCCC(C)(C)C(=O)NC2CCN(Cc3ccc(Cl)cc3)CC2)c1
- Activity (RAW264.7 [1]): 68.99%

- IC50 (RAW264.7 [2]): 8.56 µM
Compound: Cc1ccc(CN2CCC(NC(=O)C(C)(C)Oc3ccc(C(=O)c4ccc(Cl)cc4)cc3)CC2)cc1
- Activity (RAW264.7 [1]): 4.64%
